Results on 1 molecule are retold here after ChEMBL document CHEMBL6092168, “Identification of novel indolinone derivatives as CTSC inhibitors to treat inflammatory bowel disease by modulating inflammatory factors” (Eur J Med Chem, 2024).

The test system of this assay is Mus musculus. The assay is described as follows: Anti-inflammatory activity in DSS-induced ulcerative colitis male C57BL/6 mouse model assessed as reduction in IL-6 expression in colon administered via gavage for 10 days by ELISA. In kind it is functional, organism-based. The following applies: dose 15-60 mg/kg, time 10.0 day. (In general: ELISA stands for enzyme-linked immunosorbent assay.)

Turning to `O=C1Nc2c(cccc2-c2ccc(NC3CCOCC3)cc2)/C1=C/c1ccnc2ccccc12`, the Activity result is reported as “Dose-dependent-effect; Significant Reduction Observed In High Dose Group”.
